Each compound was assayed against human GPR40 (Homo sapiens, UniProt O14842) (assay: Inositol Phosphate Turnover (IP1) Assay 2). Details: HEK cells stably expressing human GPR40, Table 2, read-out: Human IP1.
Assay type: cell-based
Design: expressed in transfected cells
Protocol: Human and mouse GPR40 stable cell-lines were generated in CHO cells stably expressing NFAT BLA (Beta-lactamase). A human GPR40 stable cell-line was generated in HEK cells stably expressing the aequorin expressing reporter. The expression plasmids were transfected using lipofectamine (Life Technologies) following manufacturer's instructions. Stable cell-lines were generated following drug selection.
The assay is performed in 384-well format. HEK cells stably expressing human GPR40 are plated at 15,000 cells per well in growth medium (DMEM/10% fetal calf serum). Cell plates are then incubated 16 hours at 37 degrees in a 5% CO2 incubator.
Measurement of Inositol Phosphate Turnover (IP1) is performed using the CisBio IP-One kit (Part number 62IPAPEB). After the 16 hour incubation, the cells are washed with HEPES buffer and 10 ul of stimulation buffer (prepared as described in the kit) is added to each well. In a separate plate, compounds are diluted in DMSO (400-fold over the final concentration in the assay well) and 25 nl is acoustically transferred to the appropriate well in the assay cell plate. The plates are then incubated for 60 minutes at 37 degrees. 10 ul of detection buffer (also prepared as described in the IP-One kit) is added to each well and the plates are incubated for 60 minutes in the dark. The plates are then read in a Perkin Elmer EnVision or equivalent reader able to measure FRET.

human GPR40, sequence (O14842 whole entry): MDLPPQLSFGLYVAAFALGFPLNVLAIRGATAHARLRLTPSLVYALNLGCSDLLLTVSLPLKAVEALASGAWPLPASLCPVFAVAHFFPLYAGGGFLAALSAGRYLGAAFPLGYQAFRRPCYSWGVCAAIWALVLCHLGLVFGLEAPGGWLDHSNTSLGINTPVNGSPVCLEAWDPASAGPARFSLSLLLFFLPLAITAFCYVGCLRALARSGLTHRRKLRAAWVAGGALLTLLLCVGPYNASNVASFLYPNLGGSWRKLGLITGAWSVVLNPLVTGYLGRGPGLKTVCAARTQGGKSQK

SMILES | EC50 [nM]
COc1cc(-c2ccc(C3CCc4ccc([C@H](C5CC5)[C@H](C)C(=O)O)cc4O3)cc2C(OC)C(C)(C)C)ccn1 (mixture of isomers) [Example 129] | 0.5
COc1cc(-c2ccc(C3CCc4ccc([C@H](C5CC5)[C@H](C)C(=O)O)cc4O3)cc2C(OC)C2CC2)c(F)cn1 (mixture of isomers) [Example 130] | 0.9
COc1ccc(F)c(-c2cnc(C3CCc4ccc([C@H](C5CC5)[C@H](C)C(=O)O)cc4O3)cn2)c1 (mixture of isomers) [Example 131] | 1.7
COc1ccc(F)c(-c2ccc(C3CCc4ccc([C@H](C5CC5)[C@H](C)C(=O)O)cc4O3)nc2N2CCC2)c1 (mixture of isomers) [Example 132] | 18
COc1cc(-c2ccc(C3CCc4ccc([C@H](C5CC5)[C@H](C)C(=O)O)cc4O3)c(F)c2)ccn1 (mixture of isomers) [Example 133, (2S,3R)-3-cyclopropyl-3-(2-(2-fluoro-4-(2-methoxypyridin-4-yl)phenyl)-chroman-7-yl)-2-methylpropanoic acid] | 1.2
COc1ccc(F)c(-c2ccc(C3CCc4ccc([C@H](C5CC5)[C@H](C)C(=O)O)nc4O3)cc2)c1 (mixture of isomers) [Example 137] | 454
COc1ccc(F)c(-c2ccc(C3CCc4ccc([C@@H](CC(=O)O)C5CC5)cc4O3)cc2)c1 (single isomer, unassigned) [Example 61] | 36
COc1ccc(F)c(-c2ccc(C3CCc4ccc([C@@H](CC(=O)O)C5CC5)cc4O3)cc2)c1 (single isomer, unassigned) [Example 62] | 18
COc1ccc(F)c(-c2ccc([C@@H]3CCc4ccc([C@H](C5CC5)[C@H](C)C(=O)O)cc4O3)cc2)c1 (single isomer, unassigned) [Example 63] | 3.3
COc1ccc(F)c(-c2ccc([C@H]3CCc4ccc([C@H](C5CC5)[C@H](C)C(=O)O)cc4O3)cc2)c1 (single isomer, unassigned) [Example 64] | 1.1
COc1ccc(F)c(-c2ccc(C3CCc4ccc([C@H](C5CC5)[C@@H](C)C(=O)O)cc4O3)cc2)c1 (single isomer, unassigned) [Example 65] | 51
COc1ccc(F)c(-c2ccc(C3CCc4ccc([C@H](C5CC5)[C@@H](C)C(=O)O)cc4O3)cc2)c1 (single isomer, unassigned) [Example 66] | 53
C[C@H](C(=O)O)[C@H](c1ccc2c(c1)OC(c1ccc(-c3cc(O)ccc3F)cc1)CC2)C1CC1 (single isomer, unassigned) [Example 67] | 21
C[C@H](C(=O)O)[C@H](c1ccc2c(c1)OC(c1ccc(-c3cc(O)ccc3F)cc1)CC2)C1CC1 (single isomer, unassigned) [Example 68] | 1.9
COc1ccc(F)c(-c2ccc(C3CCc4ccc([C@H](C5CC5)[C@H](C)C(=O)O)cc4O3)nc2)c1 (single isomer, unassigned) [Example 97a] | 0.9
COc1ccc(F)c(-c2ccc(C3CCc4ccc([C@H](C5CC5)[C@@H](C)C(=O)O)cc4O3)nc2)c1 (single isomer, unassigned) [Example 97b] | 30
COc1ccc(F)c(-c2ccc(C3CCc4ccc([C@H](C5CC5)[C@H](C)C(=O)O)cc4O3)nc2)c1 (single isomer, unassigned) [Example 97c] | 2.9
COc1ccc(F)c(-c2ccc(C3CCc4ccc([C@H](C5CC5)[C@@H](C)C(=O)O)cc4O3)nc2)c1 (single isomer, unassigned) [Example 97d] | 43
COc1ccc(F)c(-c2ccc(C3CCc4ccc(C(CC(=O)O)C5CC5)cc4O3)cc2C2=CCCC2(C)C)c1 (single isomer, unassigned) [Example 101a] | 662
COc1ccc(F)c(-c2ccc(C3CCc4ccc(C(CC(=O)O)C5CC5)cc4O3)cc2C2=CCCC2(C)C)c1 (single isomer, unassigned) [Example 101b] | 704
COc1ccc(F)c(-c2ccc(C3CCc4ccc(C(CC(=O)O)C5CC5)cc4O3)cc2C2=CCCC2(C)C)c1 (single isomer, unassigned) [Example 101c] | 58
COc1ccc(F)c(-c2ccc(C3CCc4ccc(C(CC(=O)O)C5CC5)cc4O3)cc2C2=CCCC2(C)C)c1 (single isomer, unassigned) [Example 101d] | 90
COc1cc(-c2ccc(C3CCc4ccc([C@H](C5CC5)[C@H](C)C(=O)O)cc4O3)c(F)c2)c(F)cn1 (single isomer, unassigned) [Example 109a] | 0.17
COc1cc(-c2ccc(C3CCc4ccc([C@H](C5CC5)[C@H](C)C(=O)O)cc4O3)c(F)c2)c(F)cn1 (single isomer, unassigned) [Example 109b] | 1.2
COc1cc(-c2cnc(C3CCc4ccc([C@H](C5CC5)[C@H](C)C(=O)O)cc4O3)c(F)c2)c(F)cn1 (single isomer, unassigned) [Example 110a] | 6.8
COc1cc(-c2cnc(C3CCc4ccc([C@H](C5CC5)[C@H](C)C(=O)O)cc4O3)c(F)c2)c(F)cn1 (single isomer, unassigned) [Example 110b] | 1.6
COc1cc(-c2ccc(C3CCc4ccc([C@H](C5CC5)[C@H](C)C(=O)O)cc4O3)cc2)c(F)cn1 (single isomer, unassigned) [Example 117a] | 0.89
COc1cc(-c2ccc(C3CCc4ccc([C@H](C5CC5)[C@H](C)C(=O)O)cc4O3)cc2)c(F)cn1 (single isomer, unassigned) [Example 117b] | 0.17
COc1cc(-c2ccc(C3CCc4ccc([C@H](C5CC5)[C@H](C)C(=O)O)cc4O3)cc2)ccn1 (single isomer, unassigned) [Example 118a] | 1.6
COc1cc(-c2ccc(C3CCc4ccc([C@H](C5CC5)[C@H](C)C(=O)O)cc4O3)cc2)ccn1 (single isomer, unassigned) [Example 118b] | 5.9

Further lines, results first:

EC50 [nM] | SMILES
0.82 | COc1ccc(F)c(-c2cnc(C3CCc4ccc([C@H](C5CC5)[C@H](C)C(=O)O)cc4O3)c(F)c2)c1 (single isomer, unassigned) [Example 105a]
0.79 | COc1ccc(F)c(-c2cnc(C3CCc4ccc([C@H](C5CC5)[C@H](C)C(=O)O)cc4O3)c(F)c2)c1 (single isomer, unassigned) [Example 105b]
263 | COc1ccc(F)c(-c2cnc(C3CCc4ccc([C@H](C5CC5)[C@H](C)C(=O)O)cc4O3)cc2OC)c1 (single isomer, unassigned) [Example 108a]
5.8 | COc1ccc(F)c(-c2cnc(C3CCc4ccc([C@H](C5CC5)[C@H](C)C(=O)O)cc4O3)cc2OC)c1 (single isomer, unassigned) [Example 108b]
6 | COc1ccc(F)c(-c2ccc(C3CCc4ccc([C@H](C5CC5)[C@H](C)C(=O)O)cc4O3)nc2C(F)(F)F)c1 (single isomer, unassigned) [Example 111a]
25 | COc1ccc(F)c(-c2ccc(C3CCc4ccc([C@H](C5CC5)[C@H](C)C(=O)O)cc4O3)nc2C(F)(F)F)c1 (single isomer, unassigned) [Example 111b]
0.17 | COc1cc(-c2ccc(C3CCc4ccc([C@H](C5CC5)[C@H](C)C(=O)O)cc4O3)nc2)c(F)cn1 (single isomer, unassigned) [Example 112a]
0.92 | COc1cc(-c2ccc(C3CCc4ccc([C@H](C5CC5)[C@H](C)C(=O)O)cc4O3)nc2)c(F)cn1 (single isomer, unassigned) [Example 112b]
3.9 | COc1ccc(F)c(-c2cc(F)c(C3CCc4ccc([C@H](C5CC5)[C@H](C)C(=O)O)cc4O3)nc2C)c1 (single isomer, unassigned) [Example 113a]
14 | COc1ccc(F)c(-c2cc(F)c(C3CCc4ccc([C@H](C5CC5)[C@H](C)C(=O)O)cc4O3)nc2C)c1 (single isomer, unassigned) [Example 113b]
4.2 | COc1ccc(F)c(-c2cnc(C3CCc4ccc([C@H](C5CC5)[C@H](C)C(=O)O)cc4O3)c(C)c2)c1 (single isomer, unassigned) [Example 115a]
17.4 | COc1ccc(F)c(-c2cnc(C3CCc4ccc([C@H](C5CC5)[C@H](C)C(=O)O)cc4O3)c(C)c2)c1 (single isomer, unassigned) [Example 115b]
4.1 | COc1cc(-c2ccc(C3CCc4ccc([C@H](C5CC5)[C@H](C)C(=O)O)cc4O3)nc2C)ccn1 (single isomer, unassigned) [Example 119a]
7.8 | COc1cc(-c2ccc(C3CCc4ccc([C@H](C5CC5)[C@H](C)C(=O)O)cc4O3)nc2C)ccn1 (single isomer, unassigned) [Example 119b]

Same assay, conditions: HEK cells stably expressing human GPR40, Table 3, read-out: Human IP1 activity

EC50 [nM] | SMILES
2.6 | COc1ccc(F)c(-c2ccc(C3COc4ccc([C@H](C5CC5)[C@H](C)C(=O)O)c(F)c4O3)nc2)c1 (mixture of isomers) [Example 165]
18.8 | COc1ccc(F)c(-c2ccc(C3COc4ccc([C@@H](CC(=O)O)C5CC5)cc4O3)cc2)c1 (mixture of isomers) [Example 166]
9.5 | COc1ccc(F)c(-c2ccc(C3COc4ccc([C@H](C5CC5)[C@H](C)C(=O)O)cc4O3)cc2OC(F)(F)F)c1 (mixture of isomers) [Example 169]

Reference: patent publication US9840512B2, “Antidiabetic bicyclic compounds” (Merck Sharp & Dohme Corp., priority 2013, dated 2017)
